Data on 21 compounds can be found in article PMC6340895 (Protein & Cell, 2019).

The test system of one data set is LASV. To be noted: cited from earlier work.
Data set [1] deals with pseudotype of GTOV, JUNV, MACV, SABV, CHAPV, LCMV, LUJV, MOPV, EBOV, and MARV. The format is cell-based.
The subject of data set [2] is pseudotype of NW pathogenic arenaviruses. The class given is cell-based.
The next data set has as its system CHAPVpv. Nature of the data set: microbe, parasite or virus in culture. The class given is cell-based, Chapare virus (CHAPV). To be noted: Mammarenavirus chapareense, read-out: CHAPVpv IC50.
The next data set concerns TfR1. The format is cell-based.
The next data set relates to SABVpv. The data set is described as follows: organism not typed. The format is cell-based, Sabiá virus (SABV). The following applies: read-out: SABVpv IC50.
In a further data set the test system is JUNVpv. Nature of the data set: organism not typed. To be noted: read-out: JUNVpv IC50. The class given is cell-based, Junín virus (JUNV).

Some results are limits rather than exact numbers.

With `C/C(=N\NC(=O)C1CC1c1ccccc1)c1ccc(NC(=O)c2ccco2)cc1` (stereo not shown) [ST-161], the Antiviral specificity entry with LASV is listed as “LASV specific”. On to `C/C(=N\NC(=O)CCc1ccccc1)c1ccc(NC(=O)c2ccco2)cc1` [compound 3, O=C(CCC1=CC=CC=C1)N/N=C(C)/C2=CC=C(NC(C3=CC=CO3)=O)C=C2], for which the CC50 in the data set “in vitro” is greater than 30 µM. Still for that read-out and setting: the value for `C/C(=N\NC(=O)Cc1ccccc1)c1ccc(NC(=O)c2ccco2)cc1` [compound 7, O=C(CC1=CC=CC=C1)N/N=C(C)/C2=CC=C(NC(C3=CC=CO3)=O)C=C2] was greater than 30 µM; that for `C/C(=N\NC(=O)Cc1ccc(Cl)cc1Cl)c1ccc(NC(=O)c2ccco2)cc1` [compound 8, O=C(CC1=C(Cl)C=C(Cl)C=C1)N/N=C(C)/C2=CC=C(NC(C3=CC=CO3)=O)C=C2] was greater than 30 µM; that for `C/C(=N\NC(=O)CCc1ccc(C)cc1)c1ccc(NC(=O)c2ccco2)cc1` [compound 9, O=C(CCC1=CC=C(C)C=C1)N/N=C(C)/C2=CC=C(NC(C3=CC=CO3)=O)C=C2] was greater than 30 µM. The same measure, in the same setting: the value for `C/C(=N\NC(=O)CCc1ccccc1F)c1ccc(NC(=O)c2ccco2)cc1` [compound 10, O=C(CCC1=C(F)C=CC=C1)N/N=C(C)/C2=CC=C(NC(C3=CC=CO3)=O)C=C2] was greater than 30 µM. Still for that read-out and setting: the value for `C/C(=N\NC(=O)CCc1ccccc1C)c1ccc(NC(=O)c2ccco2)cc1` [compound 20, O=C(CCC1=C(C)C=CC=C1)N/N=C(C)/C2=CC=C(NC(C3=CC=CO3)=O)C=C2] was greater than 30 µM. Turning to `C/C(=N\NC(=O)CCc1cccc(C)c1)c1ccc(NC(=O)c2ccco2)cc1` [compound 21, O=C(CCC1=CC(C)=CC=C1)N/N=C(C)/C2=CC=C(NC(C3=CC=CO3)=O)C=C2], in data set [1], the “Antiviral specificity across pseudotype panel” value is “largely maintained LASV specificity”. The CC50 in “in vitro” was greater than 30 µM. In “in vitro”, `COc1ccc(CCC(=O)N/N=C(\C)c2ccc(NC(=O)c3ccco3)cc2)cc1` [compound 22, O=C(CCC1=CC=C(OC)C=C1)N/N=C(C)/C2=CC=C(NC(C3=CC=CO3)=O)C=C2] registered a CC50 greater than 30 µM.

`C/C(=N\NC(=O)CCCc1ccc(C)cc1)c1ccc(NC(=O)c2ccco2)cc1` [compound 23, O=C(CCCC1=CC=C(C)C=C1)N/N=C(C)/C2=CC=C(NC(C3=CC=CO3)=O)C=C2] gave a CC50 in the data set “in vitro” greater than 30 µM. On the same count and under the same terms, with `C/C(=N\NC(=O)CCc1ccc([N+](=O)[O-])cc1)c1ccc(NC(=O)c2ccco2)cc1` [compound 24, O=C(CCC1=CC=C([N+]([O-])=O)C=C1)N/N=C(C)/C2=CC=C(NC(C3=CC=CO3)=O)C=C2] the figure was greater than 30 µM; with `C/C(=N\NC(=O)CCc1cccc([N+](=O)[O-])c1)c1ccc(NC(=O)c2ccco2)cc1` [compound 25, O=C(CCC1=CC([N+]([O-])=O)=CC=C1)N/N=C(C)/C2=CC=C(NC(C3=CC=CO3)=O)C=C2], greater than 30 µM; with `C/C(=N\NC(=O)CCc1ccc(F)cc1)c1ccc(NC(=O)c2ccco2)cc1` [compound 26, O=C(CCC1=CC=C(F)C=C1)N/N=C(C)/C2=CC=C(NC(C3=CC=CO3)=O)C=C2], greater than 30 µM. Still for that read-out and setting: the value for `C/C(=N\NC(=O)CCCCc1ccccc1)c1ccc(NC(=O)c2ccco2)cc1` [compound 27, O=C(CCCCC1=CC=CC=C1)N/N=C(C)/C2=CC=C(NC(C3=CC=CO3)=O)C=C2] was greater than 30 µM. On the same count and under the same terms, the value for `COc1ccc(CCC(=O)N/N=C(\C)c2ccc(NC(=O)c3ccco3)cc2)c(OC)c1` [compound 28, O=C(CCC1=C(OC)C=C(OC)C=C1)N/N=C(C)/C2=CC=C(NC(C3=CC=CO3)=O)C=C2] was greater than 30 µM.

Turning to `C/C(=N\NC(=O)CCc1ccc(Br)cc1)c1ccc(NC(=O)c2ccco2)cc1` [compound 29, O=C(CCC1=CC=C(Br)C=C1)N/N=C(C)/C2=CC=C(NC(C3=CC=CO3)=O)C=C2], the “Antiviral specificity across pseudotype panel” value in data set [1] is “largely maintained LASV specificity”. The CC50 in the data set “in vitro” is greater than 30 µM. As for `C/C(=N\NC(=O)CCc1ccccc1C(F)(F)F)c1ccc(NC(=O)c2ccco2)cc1` [compound 30, O=C(CCC1=C(C(F)(F)F)C=CC=C1)N/N=C(C)/C2=CC=C(NC(C3=CC=CO3)=O)C=C2], the CC50 in the data set “in vitro” is greater than 30 µM.

Consider `COc1ccc(CC(=O)N/N=C(\C)c2ccc(NC(=O)c3ccco3)cc2)cc1` [compound 54, O=C(CC1=CC=C(OC)C=C1)N/N=C(C)/C2=CC=C(NC(C3=CC=CO3)=O)C=C2], for which, in the data set “in vitro”, the CC50 was greater than 30 µM. The same measure, in the same setting: with `C/C(=N\NC(=O)CCCc1ccccc1)c1ccc(NC(=O)c2ccco2)cc1` [compound 56, O=C(CCCC1=CC=CC=C1)N/N=C(C)/C2=CC=C(NC(C3=CC=CO3)=O)C=C2] the figure was greater than 30 µM.

As usually defined, the IC50 is the concentration at which inhibition is half-maximal. For the compound `C/C(=N\NC(=O)CCc1ccc(C(C)(C)C)cc1)c1ccc(NC(=O)c2ccco2)cc1` [compound 57, O=C(CCC1=CC=C(C(C)(C)C)C=C1)N/N=C(C)/C2=CC=C(NC(C3=CC=CO3)=O)C=C2], the “Effect on binding of NW pathogenic viruses” value in data set [2] is “no effect”. Further, the IC50 with CHAPVpv is 0.0898 µM; in the data set with SABVpv it was 0.244 µM; in the data set on JUNVpv, 0.096 µM. Further, the “Cell surface expression of TfR1” value in the data set on TfR1 is reported as “did not down-regulate”. This compound also came in with a CC50 in the data set “in vitro” greater than 30 µM. With `Cc1ccc(CCC(=O)CCC(C)c2ccc(NC(=O)c3ccco3)cc2)cc1` (stereo not shown) [compound 72], the “Antiviral specificity across pseudotype panel” value in data set [1] is listed as “largely maintained LASV specificity”.
